The nature of data set [1]: logP by HPLC on reversed-phase column (EEC Directive 79/831 Annex V.A8). The format is physicochemical. The note with it: 40° C., 0.1% aqueous formic acid and acetonitrile, linear gradient 10% to 90% acetonitrile. How it is done:
In table 1, the logP values were determined in accordance with EEC Directive 79/831 Annex V.A8 by HPLC (High Performance Liquid Chromatography) on a reversed-phase column (C 18), using the method described below: Temperature: 40° C.; Mobile phases: 0.1% aqueous formic acid and acetonitrile; linear gradient from 10% acetonitrile to 90% acetonitrile. Calibration was carried out using unbranched alkan-2-ones (comprising 3 to 16 carbon atoms) with known logP values (determination of the logP values by the retention times using linear interpolation between two successive alkanones). lambda-max-values were determined using UV-spectra from 200 nm to 400 nm and the peak values of the chromatographic signals.

In a further data set the test system is Alternaria solani. Nature of the data set: in vivo preventive test on Alternaria solani (tomato). The note with it: 500 ppm of active ingredient, evaluated 7 days after inoculation. How it is done:
Solvent: 49 parts by weight of N,N-dimethylformamide Emulsifier: 1 part by weight of Alkylarylpolyglycolether To produce a suitable preparation of active compound, 1 part by weight of active compound is mixed with the stated amounts of solvent and emulsifier, and the concentrate is diluted with water to the desired concentration. To test for preventive activity, young plants are sprayed with the preparation of active compound at the stated rate of application. One day after this treatment, the plants are inoculated with an aqueous spore suspension of Alternaria solani. The plants remain for one day in an incubation cabinet at approximately 22° C. and a relative atmospheric humidity of 100%. Then the plants are placed in an incubation cabinet at approximately 20° C. and a relative atmospheric humidity of 96%. The test is evaluated 7 days after the inoculation. 0% means an efficacy which corresponds to that of the untreated control while an efficacy of 100% means that no disease is observed.

The subject of a further data set is Pyrenophora teres. Briefly: in vivo preventive test on Pyrenophora teres (barley). The note with it: 500 ppm of active ingredient, evaluated 7-9 days after inoculation. How it is done:
Solvent: 49 parts by weight of N,N-dimethylformamide Emulsifier: 1 part by weight of alkylaryl polyglycol ether To produce a suitable preparation of active compound, 1 part by weight of active compound is mixed with the stated amounts of solvent and emulsifier, and the concentrate is diluted with water to the desired concentration. To test for preventive activity, young plants are sprayed with the preparation of active compound at the stated rate of application. One day after this treatment, the plants are inoculated with an aqueous spore suspension of Pyrenophora teres. The plants remain for 48 hours in an incubation cabinet at 22° C. and a relative atmospheric humidity of 100%. Then the plants are placed in a greenhouse at a temperature of approximately 20° C. and a relative atmospheric humidity of approximately 80%. The test is evaluated 7-9 days after the inoculation. 0% means an efficacy which corresponds to that of the untreated control while an efficacy of 100% means that no disease is observed.

Setting [2] is: HPLC on reversed-phase column (C 18).

As for `Cn1nc(C(F)F)c(C(=O)N(Cc2c(Cl)cncc2Cl)C2CC2)c1Cl` [Example 116], the logP in data set [1] (setting [2]) is given as 2.64. Besides, the Efficacy with Alternaria solani was 90%; in the data set on Pyrenophora teres, 95%.

As to `Cc1occc1C1(NC(=O)c2c(C(F)F)nn(C)c2Cl)CCCC1` [Example 23], the log partition coefficient (logP) in data set [1] (setting [2]) was 3.11. This compound also displayed an Efficacy in the data set on Pyrenophora teres of 100%.

The compound `Cn1nc(C(F)F)c(C(=O)N(Cc2cc3ccccc3n2-c2ccccc2)C2CC2)c1Cl` [Example 156] came in with a logP in data set [1] (setting [2]) of 4.13. Further, the Efficacy in the data set on Pyrenophora teres was 90%.

In data set [1] (HPLC, reversed-phase column (C 18)), `Cn1nc(C(F)F)c(C(=O)N(Cc2cc(-c3cc(F)c(F)c(F)c3)no2)C2CC2)c1Cl` [Example 166] showed a logP of 3.64. In addition, the Efficacy in the data set with Pyrenophora teres was 90%.

In turn, `CN(Cc1cnn(-c2ccccc2)c1)C(=O)c1c(C(F)F)nn(C)c1F` [Example 109] came in with a lipophilicity (logP) in data set [1] (setting [2]) of 2.26. Further, the Efficacy is 95% in the data set with Alternaria solani and 100% in the data set with Pyrenophora teres.

`CC(C)Oc1ccc(CN(C)C(=O)c2c(C(F)F)nn(C)c2F)cn1` [Example 102]: in data set [1] (setting [2]), the logP is 2.45. The compound further had an Efficacy in the data set on Pyrenophora teres of 70%.

In turn, `Cn1nc(C(F)F)c(C(=O)N(Cc2csc3ccc(Cl)cc23)C2CC2)c1Cl` [Example 144] showed a lipophilicity (logP) in data set [1] (setting [2]) of 3.83. In the data set on Pyrenophora teres, this compound showed an Efficacy of 100%.

`Cn1nc(C(F)F)c(C(=O)NC2(c3cc4ccccc4o3)CCCC2)c1F` [Example 75] registered a lipophilicity (logP) in data set [1] (setting [2]) of 3.52. Moreover, the results for the Efficacy with Alternaria solani and in the data set with Pyrenophora teres were 70% and 89%, respectively.

`CN(Cc1cnn(-c2ccccc2)c1)C(=O)c1c(C(F)F)nn(C)c1Cl` [Example 108]: the logP in data set [1] (setting [2]) was 2.40. In the data set on Alternaria solani, this compound registered an Efficacy of 90%.

`Cn1nc(C(F)F)c(C(=O)N(Cc2cc(Cl)nc3ccccc23)C2CC2)c1Cl` [Example 139] yielded a logP in data set [1] (setting [2]) of 3.09. Further, the Efficacy with Pyrenophora teres is given as 90%.

`Cn1nc(C(F)F)c(C(=O)N(Cc2cc(-c3ccc(Cl)cc3)no2)C2CC2)c1Cl` [Example 154] registered a logP in data set [1] (setting [2]) of 3.59. The Efficacy with Pyrenophora teres came out at 100%.

In the case of `Cc1ccoc1CN(C)C(=O)c1c(C(F)F)nn(C)c1Cl` [Example 21], in data set [1] (setting [2]), the logP is 2.32. In the data set on Pyrenophora teres, the Efficacy worked out at 80%.

In turn, `Cc1ccsc1CN(C)C(=O)c1c(C(F)F)nn(C)c1F` [Example 42] returned a logP in data set [1] (setting [2]) of 2.44. The compound also had an Efficacy in the data set on Alternaria solani of 70%.

Regarding `CC(c1cccc2ccsc12)N(C(=O)c1c(C(F)F)nn(C)c1Cl)C1CC1` (centres unmarked) [Example 92], the logP in data set [1] (setting [2]) was 3.61. In the data set on Pyrenophora teres, this compound gave an Efficacy of 100%.

Turning to `CCN(Cc1nonc1C)C(=O)c1c(C(F)F)nn(C)c1F` [Example 28], the logP in data set [1] (setting [2]) is 2.05. This compound also displayed an Efficacy with Alternaria solani of 90%.

For `CN(Cc1cc(-c2cc(F)c(F)c(F)c2)no1)C(=O)c1c(C(F)F)nn(C)c1F` [Example 164], in data set [1] (setting [2]), the logP is 3.11. Moreover, in the data set on Pyrenophora teres, the Efficacy was determined as 100%.

In turn, `Cn1nc(C(F)F)c(C(=O)N(Cc2cc(CC(C)(C)C)no2)C2CC2)c1Cl` [Example 107] displayed a logP in data set [1] (setting [2]) of 3.31. In the data set on Pyrenophora teres, this compound yielded an Efficacy of 80%.

For `Cn1nc(C(F)F)c(C(=O)NC2CCCc3sccc32)c1F` (centres unmarked) [Example 104], in data set [1] (setting [2]), the logP came to 2.73. Further, the Efficacy with Alternaria solani is 94%.

For the compound `Cn1nc(C(F)F)c(C(=O)N(Cc2cc(Cl)nc3ccccc23)C2CC2)c1F` [Example 138], the logP in data set [1] (setting [2]) worked out at 2.92. This compound yielded an Efficacy with Pyrenophora teres of 100%.

Compound `Cn1nc(C(F)F)c(C(=O)N(Cc2cc(C(F)(F)F)nc3ccccc23)C2CC2)c1F` [Example 159] displayed a logP in data set [1] (setting [2]) of 3.58. In the data set with Pyrenophora teres, this compound displayed an Efficacy of 100%.

The compound `CN(Cc1ccc2nsnc2c1)C(=O)c1c(C(F)F)nn(C)c1F` [Example 100] yielded a logP in data set [1] (setting [2]) of 2.17. The same compound gave an Efficacy with Alternaria solani of 95%.

In data set [1] (setting [2]), `Cn1nc(C(F)F)c(C(=O)N(Cc2cccnc2)C2CCCCCC2)c1Cl` [Example 15] returned a logP of 1.76. Also, the Efficacy in the data set with Pyrenophora teres stood at 75%.

On to `Cn1nc(C(F)F)c(C(=O)NCc2csc3ccccc23)c1F` [Example 88], for which the logP in data set [1] (setting [2]) is listed as 2.73. The compound further showed an Efficacy with Alternaria solani of 78%.

Regarding `Cn1nc(C(F)F)c(C(=O)NCc2cc3ccccc3s2)c1Cl` [Example 83], the logP in data set [1] (setting [2]) is reported as 2.92. Further, the Efficacy in the data set with Alternaria solani is 94%.

As to `Cc1c(CN(C(=O)c2c(C(F)F)nn(C)c2Cl)C2CC2)sc2ccccc12` [Example 123], the logP in data set [1] (setting [2]) is 3.74. Besides, in the data set with Pyrenophora teres, the Efficacy amounted to 90%.

Regarding `Cn1nc(C(F)F)c(C(=O)N(Cc2cccs2)C2CC2)c1Cl` [Example 31], the logP in data set [1] (setting [2]) came to 2.73. This compound also had an Efficacy in the data set on Pyrenophora teres of 100%.

As to `CC(C)N(Cc1cnn(-c2ccc(Cl)cc2)c1)C(=O)c1c(C(F)F)nn(C)c1Cl` [Example 151], in data set [1] (setting [2]), the logP was determined as 3.39. Besides, the Efficacy with Pyrenophora teres came to 75%.

As to `Cc1cc(C(C)N(C(=O)c2c(C(F)F)nn(C)c2F)C2CC2)c(C)o1` (centres unmarked) [Example 35], the logP in data set [1] (setting [2]) amounted to 3.21. This compound yielded an Efficacy in the data set with Pyrenophora teres of 100%.

Regarding `CN(Cc1cc(-c2ccccc2)no1)C(=O)c1c(C(F)F)nn(C)c1F` [Example 110], in data set [1] (setting [2]), the logP turned out to be 2.51. In the data set with Pyrenophora teres, this compound had an Efficacy of 100%.

In the case of `Cn1nc(C(F)F)c(C(=O)N(Cc2cc3ccccc3o2)C2CC2)c1Cl` [Example 72], the logP in data set [1] (setting [2]) worked out at 3.21. In the data set on Pyrenophora teres, the Efficacy is reported as 90%.

In turn, `Cn1nc(C(F)F)c(C(=O)N(Cc2cc(C(F)(F)F)nc3ccccc23)C2CC2)c1Cl` [Example 160] yielded a lipophilicity (logP) in data set [1] (setting [2]) of 3.72. Also, in the data set on Pyrenophora teres, the Efficacy was 90%.

In turn, `Cn1nc(C(F)F)c(C(=O)NC2(c3cccnc3)CCCC2)c1F` [Example 18] showed a logP in data set [1] (setting [2]) of 0.84.

`Cn1nc(C(F)F)c(C(=O)N(Cc2nc3ccccc3s2)C2CC2)c1Cl` [Example 97] displayed a logP in data set [1] (setting [2]) of 2.80.

The compound `Cn1nc(C(F)F)c(C(=O)NC2CCCc3sccc32)c1Cl` (centres unmarked) [Example 103] had a logP in data set [1] (setting [2]) of 2.90. This compound also gave an Efficacy in the data set on Alternaria solani of 94%.

In data set [1] (setting [2]), `Cn1nc(C(F)F)c(C(=O)N(Cc2cccnc2)CC(F)(F)F)c1F` [Example 14] yielded a log partition coefficient (logP) of 1.20.

Consider `CN(Cc1ccnc(Cl)c1)C(=O)c1c(C(F)F)nn(C)c1Cl` [Example 53], for which the logP in data set [1] (setting [2]) was 1.91.

Consider `CN(Cc1ccnc(Cl)c1)C(=O)c1c(C(F)F)nn(C)c1F` [Example 54], for which the logP in data set [1] (setting [2]) came out at 1.76.

In turn, `Cn1nc(C(F)F)c(C(=O)NCc2cc3ccccc3s2)c1F` [Example 84] registered a logP in data set [1] (setting [2]) of 2.75.

`Cn1nc(C(F)F)c(C(=O)N(Cc2sccc2Br)C2CC2)c1F` [Example 135] yielded a logP in data set [1] (setting [2]) of 3.11.

Regarding `CCN(Cc1c(C)nn(CC)c1C)C(=O)c1c(C(F)F)nn(C)c1Cl` [Example 78], the lipophilicity (logP) in data set [1] (setting [2]) stood at 1.82.

Consider `Cc1ccsc1CN(C(=O)c1c(C(F)F)nn(C)c1Cl)C1CCCC1` [Example 37], for which, in data set [1] (setting [2]), the logP was found to be 3.61. The Efficacy with Alternaria solani is listed as 80%.

In data set [1] (setting [2]), `Cn1nc(C(F)F)c(C(=O)NC2(c3cccnc3)CCCC2)c1Cl` [Example 17] gave a logP of 0.96.

In turn, `Cc1cc(C(C)N(C(=O)c2c(C(F)F)nn(C)c2Cl)C2CC2)c(C)o1` (centres unmarked) [Example 36] returned a logP in data set [1] (setting [2]) of 3.37.

In data set [1] (setting [2]), `Cn1nc(C(F)F)c(C(=O)N(Cc2ccnc3cc(Cl)cc(Cl)c23)C2CC2)c1Cl` [Example 162] yielded a logP of 3.57. The compound further had an Efficacy with Pyrenophora teres of 94%.

`CCN(Cc1cn(CC)nc1C)C(=O)c1c(C(F)F)nn(C)c1Cl` [Example 46] returned a log partition coefficient (logP) in data set [1] (setting [2]) of 1.79.

In data set [1] (setting [2]), `CCn1cc(CNC(=O)c2c(C(F)F)nn(C)c2F)c(C)n1` [Example 47] yielded a logP of 1.31.

On to `Cn1nc(C(F)F)c(C(=O)N(Cc2cc(-c3ccccc3)no2)C2CC2)c1Cl` [Example 112], for which the logP in data set [1] (setting [2]) was found to be 3.04. In addition, the Efficacy with Pyrenophora teres is recorded as 95%.

Compound `CN(Cc1ccco1)C(=O)c1c(C(F)F)nn(C)c1F` [Example 1] yielded a logP in data set [1] (setting [2]) of 1.87.

In data set [1] (setting [2]), `Cc1occc1C1(NC(=O)c2c(C(F)F)nn(C)c2F)CCCC1` [Example 24] registered a logP of 2.92.

Turning to `Cc1onc(-c2ccccc2)c1CN(C)C(=O)c1c(C(F)F)nn(C)c1Cl` [Example 129], in data set [1] (setting [2]), the logP came out at 2.59.

With `Cn1nc(C(F)F)c(C(=O)N(Cc2sccc2Br)C2CC2)c1Cl` [Example 136], the logP in data set [1] (setting [2]) turned out to be 3.29.

The values above are taken from US9320276B2, “N-hetarylmethyl pyrazolylcarboxamides” (BAYER INTELLECTUAL PROPERTY GMBH, priority 2010, dated 2016).
